In patent US10864212B2, “Compositions and methods for treating retinal degradation” (University of Kentucky Research Foundation, priority 2013, dated 2020):
Entries after “also recorded” stand apart in the source; their conditions may differ.

What was measured:
Caspase-1 = test: Western blot of Caspase-1 activation in primary human RPE cells transfected with Alu RNA; type: cell-based
Protocol: The bottom row is a vinculin loading control. […]
FIG. 7 is a Western blot showing that Alu RNA causes Caspase-1 maturation in primary human RPE cells at 24 hours after Alu administration (top, middle lane, lower band), which is blocked with co-treatment with azidothymidine (AZT), cordycepin, and abacavir (ABC) (50-100 uM; lanes 3-8 from left). The loading control vinculin is shown on the bottom.
FIG. 21 is a Western blot of Caspase-1 activation (p20 subunit) in primary human RPE cells transfected with Alu RNA±me-d4T.
FIG. 35 is a Western blot of Caspase-1 activation in human RPE cells transfected with Alu RNA±NRTIs (3TC, AZT, ABC).
The bottom row in FIG. 5 is a vinculin loading control. […]
Next, FIG. 7 provides evidence of AZT, cordycepin, and abacavir inhibition of inflammasome activation by Alu RNA. Indeed, Alu RNA causes NLRP3 inflammasome activation, which is marked by processing of the enzyme Caspase 1. FIG. 7 is a Western blot showing that Alu RNA causes Caspase-1 maturation in primary human RPE cells at 24 hours after Alu administration (top, lane 2, lower band), which is blocked with co-treatment with azidothymidine (AZT), cordycepin, and abacavir (ABC) (50-100 uM; Lanes 3-8). Again, the loading control vinculin is shown on the bottom.

IL-1 beta mRNA = test: IL-1beta priming (mRNA) induced by Alu RNA in primary human RPE cells; type: cell-based; details: Alu RNA transfection, 24 hours, d4T 100 uM, FIG. 14
Protocol: FIG. 14 illustrates, in graph format, that Alu RNA transfection increases IL-1 beta mRNA levels in primary human RPE cells at 24 hours, an event termed “priming”, (Y-axis) compared to mock (transfection reagent alone).
FIG. 14 illustrates that Alu RNA transfection increases IL-1 beta mRNA levels in primary human RPE cells at 24 hours, an event termed “priming”, (Y-axis) compared to mock (transfection reagent alone).

## Cc1cn([C@H]2C=C[C@@H](CO)O2)c(=O)[nH]c1=O [d4T, 2′3′ dideoxythymidine]
Caspase-1; 24 hours after Alu administration, d4T 100 uM, FIG. 5
  Caspase-1 maturation caused by Alu RNA: blocked
Caspase-1; concentration not given, FIG. 21, 34, 35, 51-53
  Caspase-1 activation / cleavage (p20) induced by Alu RNA: block Caspase 1 activation by Alu RNA; also recorded: prevents Caspase 1 cleavage to its active 20 kDa form
IL-1 beta mRNA
  IL-1 beta mRNA levels (priming), normalized to 18S RNA: blunted
